What was measured:
ICR-JCL mice = assay: in vivo; settings: 7 days observation, 10080 min
exudation = assay: Anti-exudation activity (air pouch, croton oil); type: in vivo, rat; settings: 5 days; for I.R. against exudation: oral, 1000 mg/kg/day; for inhibition in vivo at 1000 mg/kg/day: Rattus norvegicus, po, 144 h, read-out: I.R. against exudation
In short: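 Rats, 6 per group, given subcutaneous dorsal air pouch injected with 0.5 ml sesame oil containing 1% croton oil. Compounds dosed orally in distilled water at 1000 mg/kg/day for five days; pouch exudate volume measured on day 6 and expressed as percent inhibition of exudation.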

level of blood sugar = assay: Anti-hyperglycemia activity (reduction of blood sugar level); type: in vivo, rat (Wistar, streptozotocin); settings: oral, 300 mg/kg
In short: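 Streptozotocin-diabetic Wistar rats (60 mg/kg i.p., relapsed hyperglycemia after insulin) given compounds orally at 300 mg/kg in distilled water. Blood sugar measured in samples taken 3 and 6 h post-dose.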

blood pressure = assay: Anti-hypertension activity (reduction of blood pressure); type: in vivo, rat (spontaneous hypertension); settings: oral, 300 mg/kg
In short: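 Spontaneously hypertensive rats dosed orally at 300 mg/kg in distilled water. Blood pressure measured at 3 and 6 h. Activity taken as change from the value just before dosing.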

carrageenin edema = assay: Anti-Carrageenin edema activity; type: in vivo, rat; settings: 1000 mg/kg once; for I.R. against carrageenin edema: oral, 1000 mg/kg; for inhibition in vivo at 1000 mg/kg: Rattus norvegicus, po, read-out: I.R. against carrageenin edema
In short: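 Rats (10 per group) given compound orally once at 1000 mg/kg in distilled water, then 0.1 ml 1% carrageenin injected into right hind foot pad. Foot pad thickness measured at intervals; inhibition rate (%) = (1−T/C)×100 versus carrageenin-only animals.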

cotton pellet granuloma = assay: Anti-granuloma activity (cotton pellet); type: in vivo, rat; settings: 7 days; for I.R. against cotton pellet edema: oral, 1000 mg/kg/day; for inhibition in vivo at 1000 mg/kg/day: Rattus norvegicus, po, 192 h, read-out: I.R. against cotton pellet edema
In short: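 Rats (6/group) implanted dorsally with two 30±1 mg cotton pellets; compounds given orally in distilled water at 1000 mg/kg/day once daily for 7 days. Granuloma excised on day 8 and dry weight measured; value is % inhibition of granuloma proliferation.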

beta-lipoprotein = assay: Anti-hyperlipemia activity, beta-lipoprotein in blood; type: in vivo, rabbit (Japanese white male); settings: oral, 300 mg/kg once
In short: (§1)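 Male Japanese white rabbits fed 1% cholesterol diet for 3 months received compound once orally at 300 mg/kg in water. Ear-vein blood: cholesterol by enzymatic method, beta-lipoprotein by colorimetry; values are change from predose at 3 or 6 h.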

Sarcoma-180 = assay: Anti-tumour activity against Sarcoma-180; type: in vivo, mouse (ICR-JCL); settings: 10 times every other day, tumour weight on 25th day; for Antitumour activity, inhibiting rate (I.R.): oral, 500 mg/kg/time, 500 mg/kg; for inhibition in vivo at 500 mg/kg: Mus musculus, Sarcoma-180, po, 600 h, read-out: Antitumour activity, inhibiting rate (I.R.)
In short: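 ICR-JCL mice were given 1×10^6 Sarcoma-180 cells axillary; from 24 hours, compounds in saline were dosed orally at 500 mg/kg/time, 10 times every other day. Tumour nodes were weighed on day 25; inhibition rate = (1-T/C)×100(%) versus untreated tumour-bearing mice.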

total cholesterol = assay: Anti-hyperlipemia activity, total cholesterol in blood; type: in vivo, rabbit (Japanese white male); settings: oral, 300 mg/kg once; for Reduction of cholesterol level after 3 hrs.: negative = raising
In short: as §1

[1] = tested on: pseudo-escaping reaction to tail pressure; assay: Analgetic activity against mechanical stimulation of pressure; type: in vivo, mouse (ICR female); settings: oral, 1000 mg/kg
acetic acid writhing = assay: Analgetic activity against chemical stimulation of acetic acid (writhing); type: in vivo, mouse (ICR female); settings: 30 min before 0.6% acetic acid; for I.R. of writhing: oral, 1000 mg/kg; for inhibition in vivo at 1000 mg/kg: Mus musculus, po, read-out: I.R. of writhing
Source text: Rate of inhibition (I.R.) (%)=(1-T/C)×100
T represents the average number of writhing of the group of mice administered with the present compound and injected with acetic acid, and C represents the average number of writhing of the group of mice only injected with acetic acid (control).

in vivo = settings: mouse, in vivo, po, mice, 7 days observation, read-out: LD50, acute oral toxicity
[2] = tested on: pyrexia (Saccharomyces cerevisiae); assay: Anti-pyrexia activity (yeast-induced); type: in vivo; settings: Rattus norvegicus, oral, read-out: Rate of inhibiting pyrexia (I.R.)
In short: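 Rats (n=6/group) received subcutaneous 20% Saccharomyces cerevisiae suspension, fasted 10 h, then dosed orally with 1000 mg/kg compound in distilled water. Rectal temperature was tracked at set intervals and the lowest value taken; inhibition rate computed against non-yeast and yeast-only control temperatures.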

SMILES | LD50, acute oral toxicity (ICR-JCL mice) [mg/kg] | I.R. against exudation (exudation) [%] | Reduced level of blood sugar after 3 hrs. (level of blood sugar) [mg/dL] | Reduced level of blood sugar after 6 hrs. (level of blood sugar) [mg/dL] | Reduced level of blood pressure after 3 hrs. (blood pressure) [mm Hg] | Reduced level of blood pressure after 6 hrs. (blood pressure) [mm Hg] | I.R. against carrageenin edema (carrageenin edema) [%] | Pseudo-escapting reaction pressure [1] [mmHg] | Pseudo-escapting reaction time [1] [s] | LD50 at 168 h (in vivo) [mg/kg] | inhibition in vivo at 1000 mg/kg/day (exudation) [%] | inhibition in vivo at 1000 mg/kg (carrageenin edema) [%] | inhibition in vivo at 1000 mg/kg/day (cotton pellet granuloma) [%] | inhibition in vivo at 1000 mg/kg [2] [%] | Reduction of beta-lipoprotein level after 3 hrs. (beta-lipoprotein) [mg/dL] | Reduction of beta-lipoprotein level after 6 hrs. (beta-lipoprotein) [mg/dL] | inhibition in vivo at 500 mg/kg (Sarcoma-180) [%] | Reduction of cholesterol level after 3 hrs. (total cholesterol) [mg/dL] | Reduction of cholesterol level after 6 hrs. (total cholesterol) [mg/dL] | inhibition in vivo at 1000 mg/kg (acetic acid writhing) [%] | other results
C[C@@H]1OC(Nc2ccc(CC(=O)O)cc2)[C@H](O)[C@H](O)[C@H]1O (stereo partly drawn) [Compound 28, sodium p-aminophenylacetate-N-L-rhamnoside] | 11100 | 6.1 | 92 | 77 | 25 | 19 | 8.3 | 87 | 38 | – | – | – | – | – | – | – | – | – | – | – | I.R. against cotton pellet edema (cotton pellet granuloma): 20.6%; Reduction of beta-lipoprotein level after 3 hrs. (beta-lipoprotein; 300 mg/kg): 101 mg/dL; Reduction of beta-lipoprotein level after 6 hrs. (beta-lipoprotein; 300 mg/kg): 100 mg/dL; Antitumour activity, inhibiting rate (I.R.) (Sarcoma-180): 45%; Reduction of cholesterol level after 3 hrs. (total cholesterol; 300 mg/kg): 5 mg/dL; Reduction of cholesterol level after 6 hrs. (total cholesterol; 300 mg/kg): 25 mg/dL; I.R. of writhing (acetic acid writhing): 25%
C[C@@H]1OC(Nc2ccc(CC(=O)O)cc2)[C@H](O)[C@H](O)[C@H]1O (stereo partly drawn) [Compound 29, potassium p-aminophenylacetate-N-L-rhamnoside] | 10000 | 5.8 | 88 | 71 | 21 | 17 | 9.3 | 84 | 41 | – | – | – | – | – | – | – | – | – | – | – | I.R. against cotton pellet edema (cotton pellet granuloma): 15.9%; Reduction of beta-lipoprotein level after 3 hrs. (beta-lipoprotein; 300 mg/kg): 95 mg/dL; Reduction of beta-lipoprotein level after 6 hrs. (beta-lipoprotein; 300 mg/kg): 121 mg/dL; Antitumour activity, inhibiting rate (I.R.) (Sarcoma-180): 38%; Reduction of cholesterol level after 3 hrs. (total cholesterol; 300 mg/kg): 3 mg/dL; Reduction of cholesterol level after 6 hrs. (total cholesterol; 300 mg/kg): 40 mg/dL; I.R. of writhing (acetic acid writhing): 26%
O=C(OCc1ccccc1)c1ccc(NC2O[C@H](CO)[C@@H](O)[C@H](O)[C@H]2O)cc1 (stereo partly drawn) [Compound 14, benzyl p-aminobenzoate-N-D-glucoside] | – | – | 65 | 93 | 24 | 24 | – | 92 | 44 | 11700 | 6.9 | 5.1 | 23.3 | 56 | 143 | 146 | 42 | 3 | 38 | 39 | –
C[C@@H]1OC(Nc2ccccc2C(=O)Oc2ccccc2)[C@H](O)[C@H](O)[C@H]1O (stereo partly drawn) [Compound 6, phenyl o-aminobenzoate-N-L-rhamnoside] | – | – | 121 | 146 | 22 | 23 | – | 98 | 43 | > 15000 | 19 | 7.6 | 20.5 | 69 | 152 | 155 | 44 | 4 | 57 | 37 | –
NC(=O)c1ccc(NC2O[C@H](CO)[C@@H](O)[C@H](O)[C@@H]2O)cc1 (stereo partly drawn) [Compound 4, p-aminobenzoic acid amide-N-D-mannoside] | – | – | 110 | 116 | 14 | 20 | – | 96 | 45 | 13600 | 5.7 | 12.1 | 14.9 | 28 | 123 | 135 | 42 | 0 | 46 | 41 | –
O=C(OC1CCCCC1)c1ccc(NC2O[C@H](CO)[C@@H](O[C@@H]3O[C@H](CO)[C@@H](O)[C@H](O)[C@H]3O)[C@H](O)[C@H]2O)cc1 (stereo partly shown) [Compound 19, cyclohexyl p-aminobenzoate-N-cellobioside] | – | – | 101 | 113 | 20 | 21 | – | 82 | 37 | 14600 | 24.6 | 5.5 | 5.5 | 37 | 135 | 148 | 51 | 3 | 41 | 24 | –

Reference: patent US4372948A, “Derivative of saccharide and physiologically active agent containing the same” (Kureha Kagaku Kogyo Kabushiki Kaisha, priority 1980, dated 1983)
